Test results taken from PubChem BioAssay AID248 (DTP/NCI, 2004).
Inconclusive results and toxic doses are left out.

Test system: L1210 leukemia ip in BDF1 mice, survival T/C
Test: NCI In Vivo Anticancer Drug Screen. Data for tumor model L1210 Leukemia (intraperitoneal) in B6D2F1 (BDF1) mice
Conditions: endpoint: mean survival time, higher = longer survival
Procedure, shortened: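 Tumor was transplanted into mice, which were then dosed with test compound or vehicle alone. Survival was recorded for each group, and the treated figure was expressed relative to the control figure.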

[1] = dose: 100.0 mg/kg/injection, schedule: Q01DX001 (ip), vehicle: Klucel (hydroxypropylcellulose) (HPC)
[2] = dose: 200.0 mg/kg/injection, schedule: Q01DX001 (ip), vehicle: Klucel (hydroxypropylcellulose) (HPC)
[3] = dose: 400.0 mg/kg/injection, schedule: Q01DX001 (ip), vehicle: Klucel (hydroxypropylcellulose) (HPC)

CCCCCCOC(=O)C1OC1(C)c1ccccc1 (configuration not stated)
T/C (dose: 100.0 mg/kg/injection, schedule: Q04DX002 (ip), vehicle: saline): 108 % of control
T/C (dose: 200.0 mg/kg/injection, schedule: Q04DX002 (ip), vehicle: saline): 112 % of control
T/C (dose: 400.0 mg/kg/injection, schedule: Q04DX002 (ip), vehicle: saline): 93 % of control

NC(=O)c1cc(NCCO)c([N+](=O)[O-])cc1[N+](=O)[O-]
T/C [1]: 104 % of control
T/C [2]: 100 % of control
T/C [3]: 96 % of control

C/C(=C/c1ccc(/C=C(\C)[N+](=O)[O-])cc1)[N+](=O)[O-]
T/C (dose: 10.0 mg/kg/injection, schedule: Q01DX001 (ip), vehicle: acetone): 106 % of control

C=Cc1ccccn1
T/C (dose: 75.0 mg/kg/injection, schedule: Q01DX001 (ip), vehicle: saline): 98 % of control
T/C (dose: 150.0 mg/kg/injection, schedule: Q01DX001 (ip), vehicle: saline): 102 % of control
T/C (dose: 300.0 mg/kg/injection, schedule: Q01DX001 (ip), vehicle: saline): 97 % of control

Clc1ccc2c(n1)Sc1c(Cl)nc(Cl)nc1N2
T/C [1]: 95 % of control
T/C [2]: 108 % of control
T/C [3]: 93 % of control

CC(=O)OCC1OC(N2C(=O)/C(=C(/C)c3ccncc3)SC2=S)C(OC(C)=O)C(OC(C)=O)C1OC(C)=O (configuration not stated)
T/C (dose: 25.0 mg/kg/injection, schedule: Q01DX005 (ip), vehicle: water): 94 % of control
T/C (dose: 50.0 mg/kg/injection, schedule: Q01DX005 (ip), vehicle: water): 97 % of control
T/C (dose: 100.0 mg/kg/injection, schedule: Q01DX005 (ip), vehicle: water): 97 % of control
T/C (dose: 200.0 mg/kg/injection, schedule: Q01DX005 (ip), vehicle: water): 97 % of control
T/C (dose: 400.0 mg/kg/injection, schedule: Q01DX005 (ip), vehicle: water): 89 % of control

COC1=C[C@]23CCCN2C[C@H](O)c2cc4c(cc2[C@@H]3[C@@H]1O)OCO4
T/C (dose: 15.0 mg/kg/injection, schedule: Q01DX009 (ip), vehicle: saline): 108 % of control
T/C (dose: 30.0 mg/kg/injection, schedule: Q01DX009 (ip), vehicle: saline): 104 % of control
T/C (dose: 60.0 mg/kg/injection, schedule: Q01DX009 (ip), vehicle: saline): 100 % of control

COC(=O)CC(c1ccc(Cl)cc1)N1CCCCC1 (configuration not stated)
T/C (dose: 100.0 mg/kg/injection, schedule: Q01DX001 (ip), vehicle: saline): 98 % of control
T/C (dose: 200.0 mg/kg/injection, schedule: Q01DX001 (ip), vehicle: saline): 102 % of control
T/C (dose: 400.0 mg/kg/injection, schedule: Q01DX001 (ip), vehicle: saline): 96 % of control

O=C1C(=O)C(CCc2ccccc2)C(=O)/C1=C\c1ccccc1 (configuration not stated)
T/C (dose: 100.0 mg/kg/injection, schedule: Q04DX003 (ip), vehicle: saline with Tween-80): 95 % of control
T/C (dose: 200.0 mg/kg/injection, schedule: Q04DX003 (ip), vehicle: saline with Tween-80): 86 % of control

CCCCCCCCCCCCCCCCCCNC(=O)Nc1ccc(C)c(Cl)c1
T/C (dose: 100.0 mg/kg/injection, schedule: Q04DX002 (ip), vehicle: Klucel (hydroxypropylcellulose) (HPC)): 90 % of control
T/C (dose: 200.0 mg/kg/injection, schedule: Q04DX002 (ip), vehicle: Klucel (hydroxypropylcellulose) (HPC)): 93 % of control

O=NN(C(=O)c1ccccc1)C(c1ccccc1)c1ccc(Cl)cc1 (configuration not stated)
T/C (dose: 45.0 mg/kg/injection, schedule: Q04DX002 (ip), vehicle: Klucel (hydroxypropylcellulose) (HPC)): 91 % of control
T/C (dose: 90.0 mg/kg/injection, schedule: Q04DX002 (ip), vehicle: Klucel (hydroxypropylcellulose) (HPC)): 91 % of control
T/C (dose: 180.0 mg/kg/injection, schedule: Q04DX002 (ip), vehicle: Klucel (hydroxypropylcellulose) (HPC)): 97 % of control

Cc1ccc(Oc2cccc3c[n+](C)ccc23)cc1
T/C (dose: 25.0 mg/kg/injection, schedule: Q04DX002 (ip), vehicle: DMSO): 93 % of control
T/C (dose: 50.0 mg/kg/injection, schedule: Q04DX002 (ip), vehicle: DMSO): 96 % of control
T/C (dose: 100.0 mg/kg/injection, schedule: Q04DX002 (ip), vehicle: DMSO): 86 % of control

CC(=O)Nc1ccc(OCCOc2cccc(C)c2)cc1
T/C [1]: 103 % of control
T/C [2]: 100 % of control
T/C [3]: 105 % of control
